Data reported in the NIST ThermoML archive (doi:10.1021/je050031f).
± gives the expanded uncertainty stated by the source.

Assays:
[1] = 100.8 kPa, Liquid
[2] = refractive index (Na D-line) (dimensionless); conditions: 101.33 kPa, Liquid, Standard Abbe refractometry
[3] = xn = mol fraction of the nth substance listed; conditions: 100.8 kPa, Liquid
[4] = refractive index (Na D-line) (dimensionless); xn = mol fraction of the nth substance listed; conditions: 100.8 kPa, Liquid, Standard Abbe refractometry

Row | SMILES | mass density ([1]; 288.15 K) [kg/m3] | viscosity ([1]; 288.15 K) [mPa·s] | mass density ([1]; 298.15 K) [kg/m3] | viscosity ([1]; 298.15 K) [mPa·s] | mass density ([1]; 308.15 K) [kg/m3] | viscosity ([1]; 308.15 K) [mPa·s] | refractive index ([2]; 288.15 K) | refractive index ([2]; 298.15 K) | refractive index ([2]; 308.15 K) | mass density ([3]; 288.15 K, x1 = 1) [kg/m3] | mass density ([3]; 298.15 K, x1 = 1) [kg/m3] | mass density ([3]; 308.15 K, x1 = 1) [kg/m3] | refractive index ([4]; 288.15 K, x1 = 1) | refractive index ([4]; 298.15 K, x1 = 1) | refractive index ([4]; 308.15 K, x1 = 1) | also measured
1 | CC1CCCCC1 [methylcyclohexane] | 773.4 ± 0.3 | 0.784 ± 0.01 | 765 ± 0.3 | 0.685 ± 0.009 | 756.3 ± 0.3 | 0.6 ± 0.008 | 1.42578 ± 0.00033 | 1.42053 ± 0.00033 | 1.41537 ± 0.00033 | – | – | – | – | – | – | –
2 | CCO [ethanol] + CC(C)OC(C)C | – | – | – | – | – | – | – | – | – | – | – | – | – | – | – | mass density ([3]; 288.15 K, x2 = 0): 793.6 ± 0.2 kg/m3; viscosity ([3]; 288.15 K, x2 = 0): 1.31 ± 0.016 mPa·s; mass density ([3]; 298.15 K, x2 = 0): 785.2 ± 0.3 kg/m3; viscosity ([3]; 298.15 K, x2 = 0): 1.085 ± 0.013 mPa·s; mass density ([3]; 308.15 K, x2 = 0): 776.5 ± 0.3 kg/m3; viscosity ([3]; 308.15 K, x2 = 0): 0.906 ± 0.011 mPa·s; refractive index ([4]; 288.15 K, x2 = 0): 1.36351 ± 0.00031; refractive index ([4]; 298.15 K, x2 = 0): 1.35935 ± 0.00031; refractive index ([4]; 308.15 K, x2 = 0): 1.35504 ± 0.00031
3 | CC(C)OC(C)C [diisopropyl ether] + CC1CCCCC1 | – | – | – | – | – | – | – | – | – | 729 ± 0.3 | 718.6 ± 0.3 | 707.9 ± 0.3 | 1.37126 ± 0.00031 | 1.36537 ± 0.00031 | 1.35954 ± 0.00031 | viscosity ([3]; 288.15 K, Capillary tube (Ostwald / Ubbelohde) method, x1 = 1): 0.347 mPa·s; viscosity ([3]; 298.15 K, Capillary tube (Ostwald / Ubbelohde) method, x1 = 1): 0.313 mPa·s; viscosity ([3]; 308.15 K, Capillary tube (Ostwald / Ubbelohde) method, x1 = 1): 0.283 mPa·s
4 | CCO [ethanol] | 793.6 ± 0.2 | 1.31 ± 0.016 | 785.2 ± 0.3 | 1.085 ± 0.013 | 776.5 ± 0.3 | 0.906 ± 0.011 | 1.36351 ± 0.00031 | 1.35935 ± 0.00031 | 1.35504 ± 0.00031 | – | – | – | – | – | – | –
5 | CC(C)OC(C)C [diisopropyl ether] | 729 ± 0.3 | 0.347 ± 0.005 | 718.6 ± 0.3 | 0.313 ± 0.005 | 707.9 ± 0.3 | 0.283 ± 0.005 | 1.37126 ± 0.00031 | 1.36537 ± 0.00031 | 1.35954 ± 0.00031 | – | – | – | – | – | – | –
6 | CCO [ethanol] + CC1CCCCC1 | – | – | – | – | – | – | – | – | – | 793.6 ± 0.2 | 785.2 ± 0.3 | 776.5 ± 0.3 | 1.36351 ± 0.00031 | 1.35935 ± 0.00031 | 1.35504 ± 0.00031 | viscosity ([3]; 288.15 K, x1 = 1): 1.31 ± 0.016 mPa·s; viscosity ([3]; 298.15 K, x1 = 1): 1.085 ± 0.013 mPa·s; viscosity ([3]; 308.15 K, x1 = 1): 0.906 ± 0.011 mPa·s
